How the values were obtained:
Conditions in all cases: substance 10^−9M
primary human T-cells = test: Cytokine secretion on protein level in activated primary human T-cells (13-plex FACS / Luminex, supernatant); format: cell-based
How it was run: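 PMA/Ionomycin- or IFN-γ-activated cells (48 h) treated with tripeptides; supernatant 13-plex FACS at 48 h and 72 h post-stimulation. Luminex run: PMA/Ionomycin plus compound at 10^−7, 10^−9, 10^−11 M; IFN-γ, IL-17, IL-10 for T cells, IFN-γ for HaCaT.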

[1] = test system: human keratinocyte cell line (HaCaT); test: Cytokine secretion on protein level in activated human keratinocyte cell line HaCaT (13-plex FACS / Luminex, supernatant); format: cell-based
How it was run: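 Cytokine protein in supernatant is read by multiplex FACS or Luminex. Tripeptide-treated HaCaT cells or blood-derived human T-cells are stimulated beforehand with PMA/Ionomycin or IFN-γ. The most relevant analytes are IL-1, IL-2, IL-6, IL-12p70, IL-17, IFN-γ and TNF-α, sampled 48 h and 72 h after stimulation.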

primary murine T-cells = test: Cytokine secretion on protein level in activated primary murine T-cells (13-plex FACS / Luminex, supernatant); format: cell-based, C57BL/6 mice
How it was run: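 T-cells from secondary lymphatic organs of naïve C57BL/6 mice, stimulated with PMA/Ionomycin or IFN-γ; supernatant cytokines measured by 13-plex FACS 48 h and 72 h after stimulation. In another run, PMA/Ionomycin-stimulated cells received compounds at 10^−7, 10^−9 and 10^−11 M, with IFN-γ, IL-17 and IL-10 measured by Luminex.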

[2] = primary human T-cells stimulated with IFN-γ
[3] = primary human T-cells stimulated with PBS
[4] = primary human T-cells stimulated with PMA/Ionomycin
[5] = HaCaT stimulated with PMA/Ionomycin
[6] = primary murine T-cells stimulated with IFN-γ
[7] = primary murine T-cells stimulated with PBS
[8] = primary murine T-cells stimulated with PMA/Ionomycin

H-(L)-Lys-(L)-Pro-Alb-NH2 [Example 10]
IL-1 cytokine concentration (primary human T-cells; [2]): 139.49 pg/mL
IL-2 cytokine concentration (primary human T-cells; [2]): 231.83 pg/mL
IL-4 cytokine concentration (primary human T-cells; [2]): 160.97 pg/mL
IL-5 cytokine concentration (primary human T-cells; [2]): 0 pg/mL
IL-6 cytokine concentration (primary human T-cells; [2]): 105.21 pg/mL
IL-9 cytokine concentration (primary human T-cells; [2]): 0 pg/mL
IL-10 cytokine concentration (primary human T-cells; [2]): 0 pg/mL
IL-12p70 cytokine concentration (primary human T-cells; [2]): 0 pg/mL
IL-13 cytokine concentration (primary human T-cells; [2]): 162.81 pg/mL
IL-17 cytokine concentration (primary human T-cells; [2]): 250.1 pg/mL
IL-22 cytokine concentration (primary human T-cells; [2]): 0 pg/mL
TNF-α cytokine concentration (primary human T-cells; [2]): 0 pg/mL
IL-1 cytokine concentration (primary human T-cells; [3]): 0 pg/mL
IL-2 cytokine concentration (primary human T-cells; [3]): 0 pg/mL
IL-4 cytokine concentration (primary human T-cells; [3]): 0 pg/mL
IL-5 cytokine concentration (primary human T-cells; [3]): 0 pg/mL
IL-6 cytokine concentration (primary human T-cells; [3]): 216.7 pg/mL
IL-9 cytokine concentration (primary human T-cells; [3]): 23.18 pg/mL
IL-10 cytokine concentration (primary human T-cells; [3]): 48.86 pg/mL
IL-12p70 cytokine concentration (primary human T-cells; [3]): 0 pg/mL
IL-13 cytokine concentration (primary human T-cells; [3]): 0 pg/mL
IL-17 cytokine concentration (primary human T-cells; [3]): 0 pg/mL
IL-22 cytokine concentration (primary human T-cells; [3]): 0 pg/mL
INF-α cytokine concentration (primary human T-cells; [3]): 0 pg/mL
TNF-α cytokine concentration (primary human T-cells; [3]): 21.65 pg/mL
IL-1 cytokine concentration (primary human T-cells; [4]): 878.53 pg/mL
IL-2 cytokine concentration (primary human T-cells; [4]): 5107.74 pg/mL
IL-4 cytokine concentration (primary human T-cells; [4]): 179.62 pg/mL
IL-5 cytokine concentration (primary human T-cells; [4]): 416.25 pg/mL
IL-6 cytokine concentration (primary human T-cells; [4]): 1255.58 pg/mL
IL-9 cytokine concentration (primary human T-cells; [4]): 461.98 pg/mL
IL-10 cytokine concentration (primary human T-cells; [4]): 729.43 pg/mL
IL-12p70 cytokine concentration (primary human T-cells; [4]): 0 pg/mL
IL-13 cytokine concentration (primary human T-cells; [4]): 1183.46 pg/mL
IL-17 cytokine concentration (primary human T-cells; [4]): 2234.39 pg/mL
IL-22 cytokine concentration (primary human T-cells; [4]): 0 pg/mL
INF-α cytokine concentration (primary human T-cells; [4]): 11538.53 pg/mL
TNF-α cytokine concentration (primary human T-cells; [4]): 4132.03 pg/mL
IL-1 cytokine concentration ([1]; HaCaT stimulated with IFN-γ): 0 pg/mL
IL-2 cytokine concentration ([1]; HaCaT stimulated with IFN-γ): 0 pg/mL
IL-4 cytokine concentration ([1]; HaCaT stimulated with IFN-γ): 183.12 pg/mL
IL-5 cytokine concentration ([1]; HaCaT stimulated with IFN-γ): 88.64 pg/mL
IL-6 cytokine concentration ([1]; HaCaT stimulated with IFN-γ): 346.73 pg/mL
IL-9 cytokine concentration ([1]; HaCaT stimulated with IFN-γ): 0 pg/mL
IL-10 cytokine concentration ([1]; HaCaT stimulated with IFN-γ): 0 pg/mL
IL-12p70 cytokine concentration ([1]; HaCaT stimulated with IFN-γ): 0 pg/mL
IL-13 cytokine concentration ([1]; HaCaT stimulated with IFN-γ): 1904.09 pg/mL
IL-17 cytokine concentration ([1]; HaCaT stimulated with IFN-γ): 189.1 pg/mL
IL-22 cytokine concentration ([1]; HaCaT stimulated with IFN-γ): 0 pg/mL
TNF-α cytokine concentration ([1]; HaCaT stimulated with IFN-γ): 0 pg/mL
IFN-γ cytokine concentration ([1]; HaCaT stimulated with PBS): 469.17 pg/mL
IL-1 cytokine concentration ([1]; HaCaT stimulated with PBS): 170.16 pg/mL
IL-2 cytokine concentration ([1]; HaCaT stimulated with PBS): 0 pg/mL
IL-4 cytokine concentration ([1]; HaCaT stimulated with PBS): 218.04 pg/mL
IL-5 cytokine concentration ([1]; HaCaT stimulated with PBS): 0 pg/mL
IL-6 cytokine concentration ([1]; HaCaT stimulated with PBS): 125.38 pg/mL
IL-9 cytokine concentration ([1]; HaCaT stimulated with PBS): 5.28 pg/mL
IL-10 cytokine concentration ([1]; HaCaT stimulated with PBS): 0 pg/mL
IL-12p70 cytokine concentration ([1]; HaCaT stimulated with PBS): 0 pg/mL
IL-13 cytokine concentration ([1]; HaCaT stimulated with PBS): 1864.02 pg/mL
IL-17 cytokine concentration ([1]; HaCaT stimulated with PBS): 230.84 pg/mL
IL-22 cytokine concentration ([1]; HaCaT stimulated with PBS): 0 pg/mL
TNF-α cytokine concentration ([1]; HaCaT stimulated with PBS): 0 pg/mL
IFN-γ cytokine concentration [1, 5]: 327.78 pg/mL
IL-1 cytokine concentration [1, 5]: 251.13 pg/mL
IL-2 cytokine concentration [1, 5]: 189.17 pg/mL
IL-4 cytokine concentration [1, 5]: 0 pg/mL
IL-5 cytokine concentration [1, 5]: 0 pg/mL
IL-6 cytokine concentration [1, 5]: 315.82 pg/mL
IL-9 cytokine concentration [1, 5]: 14.67 pg/mL
IL-10 cytokine concentration [1, 5]: 34.84 pg/mL
IL-12p70 cytokine concentration [1, 5]: 0 pg/mL
IL-13 cytokine concentration [1, 5]: 0 pg/mL
IL-17 cytokine concentration [1, 5]: 45.41 pg/mL
IL-22 cytokine concentration [1, 5]: 0 pg/mL
TNF-α cytokine concentration [1, 5]: 53.51 pg/mL
IL-1 cytokine concentration (primary murine T-cells; [6]): 77.81 pg/mL
IL-2 cytokine concentration (primary murine T-cells; [6]): 93.19 pg/mL
IL-4 cytokine concentration (primary murine T-cells; [6]): 81.11 pg/mL
IL-5 cytokine concentration (primary murine T-cells; [6]): 238.38 pg/mL
IL-6 cytokine concentration (primary murine T-cells; [6]): 139.83 pg/mL
IL-10 cytokine concentration (primary murine T-cells; [6]): 2024.06 pg/mL
IL-13 cytokine concentration (primary murine T-cells; [6]): 0 pg/mL
IL-17 cytokine concentration (primary murine T-cells; [6]): 0 pg/mL
IL-21 cytokine concentration (primary murine T-cells; [6]): 0 pg/mL
IL-22 cytokine concentration (primary murine T-cells; [6]): 57.35 pg/mL
IL-27 cytokine concentration (primary murine T-cells; [6]): 1.29 pg/mL
TNF-α cytokine concentration (primary murine T-cells; [6]): 32.42 pg/mL
IFN-γ cytokine concentration (primary murine T-cells; [7]): 0 pg/mL
IL-1 cytokine concentration (primary murine T-cells; [7]): 66.84 pg/mL
IL-2 cytokine concentration (primary murine T-cells; [7]): 132.67 pg/mL
IL-4 cytokine concentration (primary murine T-cells; [7]): 65.63 pg/mL
IL-5 cytokine concentration (primary murine T-cells; [7]): 229.8 pg/mL
IL-6 cytokine concentration (primary murine T-cells; [7]): 177.95 pg/mL
IL-10 cytokine concentration (primary murine T-cells; [7]): 923.65 pg/mL
IL-13 cytokine concentration (primary murine T-cells; [7]): 0 pg/mL
IL-17 cytokine concentration (primary murine T-cells; [7]): 0 pg/mL
IL-21 cytokine concentration (primary murine T-cells; [7]): 0 pg/mL
IL-22 cytokine concentration (primary murine T-cells; [7]): 71.47 pg/mL
IL-27 cytokine concentration (primary murine T-cells; [7]): 0 pg/mL
TNF-α cytokine concentration (primary murine T-cells; [7]): 77.08 pg/mL
IFN-γ cytokine concentration (primary murine T-cells; [8]): 2377.98 pg/mL
IL-1 cytokine concentration (primary murine T-cells; [8]): 173.61 pg/mL
IL-2 cytokine concentration (primary murine T-cells; [8]): 179.75 pg/mL
IL-4 cytokine concentration (primary murine T-cells; [8]): 56.84 pg/mL
IL-5 cytokine concentration (primary murine T-cells; [8]): 267.52 pg/mL
IL-6 cytokine concentration (primary murine T-cells; [8]): 164.16 pg/mL
IL-10 cytokine concentration (primary murine T-cells; [8]): 1182.68 pg/mL
IL-13 cytokine concentration (primary murine T-cells; [8]): 0 pg/mL
IL-17 cytokine concentration (primary murine T-cells; [8]): 86.12 pg/mL
IL-21 cytokine concentration (primary murine T-cells; [8]): 0 pg/mL
IL-22 cytokine concentration (primary murine T-cells; [8]): 44.47 pg/mL
IL-27 cytokine concentration (primary murine T-cells; [8]): 8.48 pg/mL
TNF-α cytokine concentration (primary murine T-cells; [8]): 33.37 pg/mL

Reference: patent publication US10954269B2, “Anti-inflammatory tripeptides” (Dr. August Wolff Gmbh & Co. KG Arzneimittel, priority 2013, dated 2021)
